In ChEMBL document CHEMBL3351798, “Discovery of the CCR1 antagonist, BMS-817399, for the treatment of rheumatoid arthritis” (J Med Chem, 2014):
Activity calls are given as the source filed them. The calls are words filed in the database; no cut-off is given here.

Columns and labels:
[1] = Metabolic stability in human liver microsomes assessed as compound remaining at 0.5 uM after 60 mins by UV-LC/MS analysis; format: ADME; details: read-out: Stability
[2] = molecular target: T1, C-X-C chemokine receptor type 3 (Homo sapiens) (UniProt P49682); experiment: Binding affinity to CXCR3 receptor (unknown origin)
T1 sequence (whole entry): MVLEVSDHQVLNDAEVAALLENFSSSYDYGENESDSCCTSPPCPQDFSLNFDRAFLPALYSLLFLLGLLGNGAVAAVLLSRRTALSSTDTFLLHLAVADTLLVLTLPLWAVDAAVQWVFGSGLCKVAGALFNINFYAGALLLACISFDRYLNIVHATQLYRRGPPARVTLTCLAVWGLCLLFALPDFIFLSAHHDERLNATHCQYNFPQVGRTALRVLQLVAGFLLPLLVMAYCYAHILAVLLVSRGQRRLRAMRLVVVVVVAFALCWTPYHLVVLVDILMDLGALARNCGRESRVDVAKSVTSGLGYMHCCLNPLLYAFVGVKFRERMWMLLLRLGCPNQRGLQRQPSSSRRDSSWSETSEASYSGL

[3] = molecular target: T2, C-C chemokine receptor type 1 (Homo sapiens, UniProt P32246); experiment: Antagonist activity at CCR1 receptor in human whole blood assessed as blocked of MIP-1alpha-mediated CD11b upregulation preincubated for 1 hr
T2 sequence (P32246 whole entry): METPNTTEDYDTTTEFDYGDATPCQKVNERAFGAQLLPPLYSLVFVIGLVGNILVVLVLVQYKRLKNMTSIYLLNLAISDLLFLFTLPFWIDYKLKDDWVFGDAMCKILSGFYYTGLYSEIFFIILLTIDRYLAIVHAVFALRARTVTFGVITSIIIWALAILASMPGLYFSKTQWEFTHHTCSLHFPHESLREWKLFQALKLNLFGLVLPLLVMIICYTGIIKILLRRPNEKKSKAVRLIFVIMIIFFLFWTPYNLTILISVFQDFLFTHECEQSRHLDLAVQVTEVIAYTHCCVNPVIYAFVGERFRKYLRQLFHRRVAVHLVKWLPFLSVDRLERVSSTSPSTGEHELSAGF

[4] = molecular target: T2, C-C chemokine receptor type 1; experiment: Displacement of [125I]MIP-1alpha from CCR1 in human THP1 cells; format: cell-based, THP-1
[5] = molecular target: T3, C-C chemokine receptor type 4 (Homo sapiens) (UniProt P51679); experiment: Binding affinity to CCR4 receptor (unknown origin)
T3 sequence (whole entry): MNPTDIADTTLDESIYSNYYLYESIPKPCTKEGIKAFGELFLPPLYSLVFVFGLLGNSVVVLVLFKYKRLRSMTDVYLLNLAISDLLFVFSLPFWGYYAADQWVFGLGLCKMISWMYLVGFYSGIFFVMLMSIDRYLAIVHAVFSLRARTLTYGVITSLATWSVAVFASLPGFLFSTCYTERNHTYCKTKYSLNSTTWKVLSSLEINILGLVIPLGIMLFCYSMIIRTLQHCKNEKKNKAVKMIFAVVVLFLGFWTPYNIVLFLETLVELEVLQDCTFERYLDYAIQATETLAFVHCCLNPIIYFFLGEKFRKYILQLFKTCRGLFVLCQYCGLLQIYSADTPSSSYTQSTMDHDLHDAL

[6] = molecular target: T4, C-X-C chemokine receptor type 2 (Homo sapiens) (UniProt P25025); experiment: Binding affinity to CXCR2 receptor (unknown origin)
T4 sequence (whole entry): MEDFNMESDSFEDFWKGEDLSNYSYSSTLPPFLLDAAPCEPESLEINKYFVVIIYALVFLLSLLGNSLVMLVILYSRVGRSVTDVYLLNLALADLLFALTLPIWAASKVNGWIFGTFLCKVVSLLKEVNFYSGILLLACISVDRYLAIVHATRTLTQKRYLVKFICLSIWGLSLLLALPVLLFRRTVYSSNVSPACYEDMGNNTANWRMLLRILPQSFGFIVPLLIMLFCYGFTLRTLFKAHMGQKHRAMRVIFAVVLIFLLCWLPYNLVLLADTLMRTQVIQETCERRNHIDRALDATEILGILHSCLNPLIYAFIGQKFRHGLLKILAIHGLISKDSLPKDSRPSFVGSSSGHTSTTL

[7] = Metabolic stability in mouse liver microsomes assessed as compound remaining at 0.5 uM after 60 mins by UV-LC/MS analysis; format: ADME; details: read-out: Stability
Homo sapiens = species on record: Homo sapiens; experiment: Inhibition of Na+ channel (unknown origin)

remaining at 1 h, 0.5 µM [1]: 100%
Activity [2]: inactive
IC50 [3]: 25 nM
IC50 [4]: 1 nM
Activity [5]: inactive
Activity [6]: inactive
remaining at 1 h, 0.5 µM [7]: 86%
inhibition (Homo sapiens): inactive
SMILES: CC(C)[C@@H](NC(=O)NCC(C)(C)O)C(=O)N1CC[C@](O)(c2ccc(Cl)cc2)C(C)(C)C1 [BMS-817399]
